Assay results from patent US20240408214A1, “NANOPARTICULATE MONOBENZONE FOR TREATING MELANOMA” (Northwestern University, priority 2021, published 2024).

Columns and labels:
B16 melanoma cells = assay: cells; settings: Mus musculus, B16, 24 h, read-out: half-maximum cytotoxicity (IC50) concentration
Experimental: FIG. 8. […] Free MBEH or lauroyl-MBEH-loaded liposomes were added to B16 melanoma cells in culture. After 24 h, the viability among the remaining cells was measured at different nanoparticle concentrations.

M14 melanoma cells = assay: Change in viable cell numbers of M14 melanoma cells over the treatment period (FIG. 9); assay type: cell-based; settings: 100 μM, 24 h, untreated cells gained 96% viable cells
Experimental: FIG. 9. First panel: Single cell functional proteomics data indicates functional heterogeneity when comparing the effects of free and nanoparticulate MBEH on cellular functions among live cells. Adherent M14 melanoma cells were incubated for 24 h with 100 μM of free MBEH (a), nanoparticulate monobenzone with lauroyl MBEH-loaded liposomes (b), MBEH-loaded MOF nanoparticles (c) or vehicle alone (d) before being harvested and loaded into individual wells of the respective Isocode chips (˜30,000 cells/sample) to measure the presence of phosphorylated proteins among individual, live cells by IsoPlexis functional proteomics. […] The decreases in cell-proliferation pathways are even more than those observed in cells that have been exposed to the free MBEH. The individual phosphoproteins measured (results are shown for ˜300 live, single cells per group) are categorized as shown in the legend. The most profound effect on cell signaling was found in presence of long-tailed MBEH. Over the treatment period, untreated cells gained 96% viable cells, whereas cell numbers were reduced by 45, 29 and 1% respectively in response to the free drug, MBEH-loaded MOFs and liposomes loaded with lauroyl MBEH, respectively. Functional heterogeneity among treatments was driven by PARP, P-eIF4α and ribosomal P-S6. Second panel: Viability changes of M14 melanoma cells shown between 24-48 h of treatment. […]

B16-F10 tumors = assay: CD8 T cell infiltration in B16-F10 tumors of mice pretreated topically (FIG. 6); assay type: in vivo, mouse; settings: mice pretreated topically with 1.5 M MBEH vs without; n=3, p<0.01
[1] = tested on: B16-F10 mouse melanoma cells; assay: Tumor volumes in mice pretreated topically and challenged with B16-F10 cells (FIG. 1); assay type: in vivo; settings: 1.5 M topical for 3 weeks before challenge with 5×10^5 B16-F10 cells; p<0.05
[2] = tested on: TRP-1+ melanocytes in C57BL/6 skin; assay: Detection of TRP-1+ melanocytes in topically treated mouse skin (FIG. 2); assay type: in vivo; settings: 1.5 M topical for 6 weeks
Excerpt: FIG. 2. Melanocytes are undetectable in mouse skin topically treated with MBEH. TRP-1^+ melanocytes (arrows) are detected in control animals but not in C57BL/6 skin treated with 1.5 M MBEH for 6 weeks.

[3] = tested on: Transfected HEK cells and B16-F10 melanoma cells; assay: MTT cytotoxicity in HEK cells transfected with melanosomal enzymes and in B16-F10 cells (FIG. 3); assay type: cell-based; settings: 250 μM, 24 h, MTT assay
Experimental: Transfected HEK cells and B16-F10 melanoma cells were exposed to 250 μM of MBEH for 24 h before cytotoxicity was measured via MTT assay.

[4] = cited from earlier work

Oc1ccc(OCc2ccccc2)cc1 [MBEH, monobenzyl ether of hydroquinone]
IC50 (B16 melanoma cells): ~500 µM
cell numbers reduced over the treatment period (M14 melanoma cells): 45%
number of cytotoxic (CD8) T cells in tumors, enhancement after exposure (B16-F10 tumors): 4.7 fold
tumor growth (tumor volumes) [1]: prevents tumor growth
TRP-1+ melanocytes in skin [2]: undetectable
cytotoxicity mediated by melanosomal enzymes [3]: All enzymes but MART-1 can mediate cytotoxicity
solubility in water [4]: highly insoluble in water
